According to ChEMBL document CHEMBL1201862, “PubChem BioAssay data set” (2004):
Calls of active or inactive are those of the source.

Tests used:
[1] = target: T1, Histone-lysine N-methyltransferase NSD2 (Homo sapiens, UniProt O96028); type: biochemical
T1 sequence (O96028 whole entry): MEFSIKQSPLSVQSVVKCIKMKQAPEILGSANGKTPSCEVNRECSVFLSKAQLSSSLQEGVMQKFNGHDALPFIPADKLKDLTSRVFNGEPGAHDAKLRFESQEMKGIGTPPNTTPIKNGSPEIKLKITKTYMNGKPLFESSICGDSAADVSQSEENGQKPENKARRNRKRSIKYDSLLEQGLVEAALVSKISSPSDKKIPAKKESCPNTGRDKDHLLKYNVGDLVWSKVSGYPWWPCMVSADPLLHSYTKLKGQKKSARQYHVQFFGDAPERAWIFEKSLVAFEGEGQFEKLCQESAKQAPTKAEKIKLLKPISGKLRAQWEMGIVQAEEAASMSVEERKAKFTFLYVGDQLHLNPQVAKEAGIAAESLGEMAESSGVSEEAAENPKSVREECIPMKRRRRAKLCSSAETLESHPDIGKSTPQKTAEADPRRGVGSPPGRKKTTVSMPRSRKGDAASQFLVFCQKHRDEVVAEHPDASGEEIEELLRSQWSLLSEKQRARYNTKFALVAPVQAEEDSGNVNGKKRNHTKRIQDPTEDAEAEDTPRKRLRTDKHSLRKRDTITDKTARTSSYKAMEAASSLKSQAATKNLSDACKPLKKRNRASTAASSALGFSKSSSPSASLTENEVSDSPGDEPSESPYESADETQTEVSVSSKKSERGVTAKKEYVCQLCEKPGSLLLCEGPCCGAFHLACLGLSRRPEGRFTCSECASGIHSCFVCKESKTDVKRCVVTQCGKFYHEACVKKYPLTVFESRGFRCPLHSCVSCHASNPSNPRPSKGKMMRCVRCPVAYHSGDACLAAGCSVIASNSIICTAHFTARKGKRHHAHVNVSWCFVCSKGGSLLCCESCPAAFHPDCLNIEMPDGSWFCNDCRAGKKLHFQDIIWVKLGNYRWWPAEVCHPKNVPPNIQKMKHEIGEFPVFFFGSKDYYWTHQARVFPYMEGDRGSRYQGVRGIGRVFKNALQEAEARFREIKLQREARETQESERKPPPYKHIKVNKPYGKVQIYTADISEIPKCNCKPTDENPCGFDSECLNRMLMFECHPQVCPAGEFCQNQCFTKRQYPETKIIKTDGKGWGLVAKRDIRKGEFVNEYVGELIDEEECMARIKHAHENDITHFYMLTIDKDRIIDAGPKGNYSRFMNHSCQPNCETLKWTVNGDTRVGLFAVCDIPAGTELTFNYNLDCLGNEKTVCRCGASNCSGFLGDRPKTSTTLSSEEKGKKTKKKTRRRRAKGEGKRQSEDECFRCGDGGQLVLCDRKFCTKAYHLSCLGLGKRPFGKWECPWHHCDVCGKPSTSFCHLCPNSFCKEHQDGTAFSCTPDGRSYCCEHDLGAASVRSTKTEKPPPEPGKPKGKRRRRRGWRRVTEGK

Caspase-3 = target: T2, Caspase-3 (Homo sapiens, UniProt P42574); type: functional;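 further: Dose-response selectivity test against caspase-3 for candidate inhibitors of sentrin-specific proteases (SENPs)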
T2 sequence (P42574 whole entry): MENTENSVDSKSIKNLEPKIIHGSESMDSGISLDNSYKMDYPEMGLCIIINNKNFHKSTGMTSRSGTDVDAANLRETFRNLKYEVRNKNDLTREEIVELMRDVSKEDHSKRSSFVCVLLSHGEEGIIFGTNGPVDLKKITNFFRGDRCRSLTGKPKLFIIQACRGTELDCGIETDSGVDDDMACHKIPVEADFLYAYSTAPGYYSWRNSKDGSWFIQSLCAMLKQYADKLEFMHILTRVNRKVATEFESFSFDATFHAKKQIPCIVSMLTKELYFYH

[2] = target: Mitogen-activated protein kinase 13 (Homo sapiens, UniProt O15264); type: functional
[3] = target: Vascular endothelial growth factor receptor 1 (Homo sapiens, UniProt P17948); type: functional;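 further: measured within a kinome-wide profiling panel, FLT1 as the panel member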
[4] = target: Serine/threonine-protein kinase Chk2 (Homo sapiens, UniProt O96017); type: functional;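 further: CHEK2 entry within a kinome-wide screening panel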
[5] = target: Inhibitor of nuclear factor kappa-B kinase subunit epsilon (Homo sapiens, UniProt Q14164); test: Navigating the Kinome. Panel member name: IKBKE; type: functional
Misshapen-like kinase 1 = Misshapen-like kinase 1 (Homo sapiens, UniProt Q8N4C8); type: functional;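 further: kinome panel screen with MINK as the panel member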
Activin receptor type-1 = Activin receptor type-1 (Homo sapiens, UniProt Q04771); test: Navigating the Kinome. Panel member name: ACVR1; type: functional
[6] = target: Platelet-derived growth factor receptor alpha (Homo sapiens, UniProt P16234); test: Navigating the Kinome. Panel member name: PDGFRA; type: functional
[7] = target: Tyrosine-protein kinase JAK2 (Homo sapiens, UniProt O60674); type: functional;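 further: JAK2 tested as one member of a kinase panel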
[8] = target: Cyclin-dependent kinase 9 (Homo sapiens, UniProt P50750); type: functional;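 further: value from the CDK9 entry of a kinome-spanning kinase panel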
[9] = target: Serine/threonine-protein kinase PLK1 (Homo sapiens, UniProt P53350); type: functional;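 further: PLK1 measured as one member of a kinome-wide profiling panel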
[10] = target: Fibroblast growth factor receptor 3 (Homo sapiens, UniProt P22607); type: functional
[11] = target: G protein-coupled receptor kinase 5 (Homo sapiens, UniProt P34947); test: Navigating the Kinome. Panel member name: GPRK5; type: functional
[12] = target: Tyrosine-protein kinase ITK/TSK (Homo sapiens, UniProt Q08881); type: functional;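 further: affinity for ITK measured as one member of a broad kinase panel profiling binding across the kinome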
[13] = target: Glycogen synthase kinase-3 beta (Homo sapiens, UniProt P49841); type: functional;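 further: value comes from a broad kinome profiling panel, with GSK3B as the panel member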
[14] = target: Serine/threonine-protein kinase SIK2 (Homo sapiens, UniProt Q9H0K1); test: Navigating the Kinome. Panel member name: SIK2; type: functional
[15] = target: ALK tyrosine kinase receptor (Homo sapiens, UniProt Q9UM73); type: functional;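 further: ALK tested as one member of a kinase panel screen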
[16] = target: Death-associated protein kinase 3 (Homo sapiens, UniProt O43293); type: functional;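 further: measured as one member of a kinome-wide profiling panel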
[17] = target: Tyrosine-protein kinase BTK (Homo sapiens, UniProt Q06187); type: functional
Sequence of Tyrosine-protein kinase BTK (Q06187 whole entry): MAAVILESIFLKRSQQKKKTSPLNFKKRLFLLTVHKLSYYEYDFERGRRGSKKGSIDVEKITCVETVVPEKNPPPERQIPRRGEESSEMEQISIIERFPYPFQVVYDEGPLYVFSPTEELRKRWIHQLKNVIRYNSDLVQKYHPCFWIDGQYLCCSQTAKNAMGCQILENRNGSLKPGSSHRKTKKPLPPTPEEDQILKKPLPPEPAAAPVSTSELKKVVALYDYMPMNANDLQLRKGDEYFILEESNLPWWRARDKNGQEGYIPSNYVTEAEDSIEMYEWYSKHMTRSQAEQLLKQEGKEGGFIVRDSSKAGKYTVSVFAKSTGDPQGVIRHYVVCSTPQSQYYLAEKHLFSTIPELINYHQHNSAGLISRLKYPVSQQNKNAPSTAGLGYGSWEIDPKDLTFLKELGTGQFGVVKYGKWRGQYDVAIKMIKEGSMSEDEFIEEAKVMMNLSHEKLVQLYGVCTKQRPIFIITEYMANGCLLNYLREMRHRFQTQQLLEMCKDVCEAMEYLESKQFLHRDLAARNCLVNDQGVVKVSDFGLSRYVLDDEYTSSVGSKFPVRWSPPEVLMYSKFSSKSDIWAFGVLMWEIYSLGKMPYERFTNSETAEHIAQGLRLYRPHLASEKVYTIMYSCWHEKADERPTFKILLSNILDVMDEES

Sequence of Activin receptor type-1 (Q04771 whole entry): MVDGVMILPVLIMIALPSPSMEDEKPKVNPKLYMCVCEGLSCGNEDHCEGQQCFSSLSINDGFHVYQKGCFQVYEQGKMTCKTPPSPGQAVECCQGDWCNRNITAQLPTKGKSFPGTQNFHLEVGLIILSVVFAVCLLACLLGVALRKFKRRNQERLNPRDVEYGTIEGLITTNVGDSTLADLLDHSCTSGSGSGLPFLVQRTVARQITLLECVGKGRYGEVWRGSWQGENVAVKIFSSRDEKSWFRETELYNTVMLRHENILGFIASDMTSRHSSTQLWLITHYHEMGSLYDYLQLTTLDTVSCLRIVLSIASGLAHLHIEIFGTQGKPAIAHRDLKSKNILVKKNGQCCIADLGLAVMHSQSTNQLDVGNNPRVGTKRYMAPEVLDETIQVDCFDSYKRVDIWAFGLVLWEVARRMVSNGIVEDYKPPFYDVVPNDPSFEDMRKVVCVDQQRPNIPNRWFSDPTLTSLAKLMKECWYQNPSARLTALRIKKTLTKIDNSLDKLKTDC
Sequence of ALK tyrosine kinase receptor (Q9UM73 whole entry): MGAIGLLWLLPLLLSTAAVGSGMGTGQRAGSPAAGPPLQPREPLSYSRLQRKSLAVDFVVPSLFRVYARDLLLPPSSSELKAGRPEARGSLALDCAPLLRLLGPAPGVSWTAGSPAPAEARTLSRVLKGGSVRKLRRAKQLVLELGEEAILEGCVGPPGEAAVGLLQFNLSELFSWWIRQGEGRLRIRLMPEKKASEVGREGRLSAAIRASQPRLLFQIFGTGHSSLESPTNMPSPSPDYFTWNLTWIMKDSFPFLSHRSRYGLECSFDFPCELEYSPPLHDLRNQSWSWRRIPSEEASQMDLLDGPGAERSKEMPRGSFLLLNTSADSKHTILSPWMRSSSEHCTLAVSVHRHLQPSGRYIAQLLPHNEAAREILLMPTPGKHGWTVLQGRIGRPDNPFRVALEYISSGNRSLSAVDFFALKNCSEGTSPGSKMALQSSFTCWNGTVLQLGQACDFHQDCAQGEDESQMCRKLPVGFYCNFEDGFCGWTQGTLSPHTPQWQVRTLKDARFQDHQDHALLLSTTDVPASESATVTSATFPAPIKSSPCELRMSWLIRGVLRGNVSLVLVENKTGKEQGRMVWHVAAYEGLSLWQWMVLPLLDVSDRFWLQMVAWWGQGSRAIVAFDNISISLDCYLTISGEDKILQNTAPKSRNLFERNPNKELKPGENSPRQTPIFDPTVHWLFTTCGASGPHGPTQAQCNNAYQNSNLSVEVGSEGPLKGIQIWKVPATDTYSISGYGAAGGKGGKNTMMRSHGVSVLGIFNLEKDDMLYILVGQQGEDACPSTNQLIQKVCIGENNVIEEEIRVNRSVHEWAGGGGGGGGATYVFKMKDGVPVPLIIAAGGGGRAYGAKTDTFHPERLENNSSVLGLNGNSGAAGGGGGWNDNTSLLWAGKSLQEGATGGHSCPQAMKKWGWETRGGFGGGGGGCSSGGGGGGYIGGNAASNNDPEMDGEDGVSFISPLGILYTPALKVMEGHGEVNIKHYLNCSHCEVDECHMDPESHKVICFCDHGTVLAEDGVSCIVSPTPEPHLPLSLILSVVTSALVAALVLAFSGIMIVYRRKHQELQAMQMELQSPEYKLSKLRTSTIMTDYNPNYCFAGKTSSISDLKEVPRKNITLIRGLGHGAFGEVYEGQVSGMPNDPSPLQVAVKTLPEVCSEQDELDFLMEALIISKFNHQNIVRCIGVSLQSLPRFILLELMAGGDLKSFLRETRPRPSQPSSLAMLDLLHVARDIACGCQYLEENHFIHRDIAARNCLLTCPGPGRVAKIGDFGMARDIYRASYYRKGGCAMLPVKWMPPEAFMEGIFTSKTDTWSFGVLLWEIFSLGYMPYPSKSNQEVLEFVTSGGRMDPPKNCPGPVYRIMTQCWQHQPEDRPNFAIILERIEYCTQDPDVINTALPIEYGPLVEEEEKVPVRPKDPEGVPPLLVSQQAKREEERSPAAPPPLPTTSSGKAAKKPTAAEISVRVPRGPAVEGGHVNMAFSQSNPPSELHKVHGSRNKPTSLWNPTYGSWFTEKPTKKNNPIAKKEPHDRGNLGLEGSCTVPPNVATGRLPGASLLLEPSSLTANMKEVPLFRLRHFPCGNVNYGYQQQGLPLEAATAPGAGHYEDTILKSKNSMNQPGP
Sequence of Serine/threonine-protein kinase PLK1 (P53350 whole entry): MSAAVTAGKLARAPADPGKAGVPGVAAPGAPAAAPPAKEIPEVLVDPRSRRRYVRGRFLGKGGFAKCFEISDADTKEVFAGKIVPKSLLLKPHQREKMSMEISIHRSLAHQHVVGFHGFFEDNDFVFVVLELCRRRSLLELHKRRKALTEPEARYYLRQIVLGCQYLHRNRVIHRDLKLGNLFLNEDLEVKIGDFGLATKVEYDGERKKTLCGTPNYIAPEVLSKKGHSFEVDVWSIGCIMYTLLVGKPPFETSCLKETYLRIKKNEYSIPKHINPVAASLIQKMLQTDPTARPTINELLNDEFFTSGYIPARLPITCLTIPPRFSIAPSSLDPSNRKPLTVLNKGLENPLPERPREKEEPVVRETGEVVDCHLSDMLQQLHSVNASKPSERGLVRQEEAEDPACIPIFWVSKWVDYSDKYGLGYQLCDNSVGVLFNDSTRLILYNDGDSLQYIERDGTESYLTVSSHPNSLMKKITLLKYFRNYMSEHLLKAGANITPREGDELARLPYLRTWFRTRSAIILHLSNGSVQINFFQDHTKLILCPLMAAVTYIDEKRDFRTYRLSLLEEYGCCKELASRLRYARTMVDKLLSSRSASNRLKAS
Sequence of Death-associated protein kinase 3 (O43293 whole entry): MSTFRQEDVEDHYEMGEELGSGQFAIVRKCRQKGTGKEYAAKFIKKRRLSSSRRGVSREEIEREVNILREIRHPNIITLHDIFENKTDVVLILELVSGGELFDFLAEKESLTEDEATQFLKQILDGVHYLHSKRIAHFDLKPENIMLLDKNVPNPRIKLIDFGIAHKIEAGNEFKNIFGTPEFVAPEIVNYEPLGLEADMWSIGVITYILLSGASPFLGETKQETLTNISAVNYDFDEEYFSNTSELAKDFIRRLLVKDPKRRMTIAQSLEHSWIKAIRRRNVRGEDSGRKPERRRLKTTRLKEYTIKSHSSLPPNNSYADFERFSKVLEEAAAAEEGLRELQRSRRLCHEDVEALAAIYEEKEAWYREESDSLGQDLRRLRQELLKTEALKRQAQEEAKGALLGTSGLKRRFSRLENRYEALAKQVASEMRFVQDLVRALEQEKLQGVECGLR
Sequence of Tyrosine-protein kinase ITK/TSK (Q08881 whole entry): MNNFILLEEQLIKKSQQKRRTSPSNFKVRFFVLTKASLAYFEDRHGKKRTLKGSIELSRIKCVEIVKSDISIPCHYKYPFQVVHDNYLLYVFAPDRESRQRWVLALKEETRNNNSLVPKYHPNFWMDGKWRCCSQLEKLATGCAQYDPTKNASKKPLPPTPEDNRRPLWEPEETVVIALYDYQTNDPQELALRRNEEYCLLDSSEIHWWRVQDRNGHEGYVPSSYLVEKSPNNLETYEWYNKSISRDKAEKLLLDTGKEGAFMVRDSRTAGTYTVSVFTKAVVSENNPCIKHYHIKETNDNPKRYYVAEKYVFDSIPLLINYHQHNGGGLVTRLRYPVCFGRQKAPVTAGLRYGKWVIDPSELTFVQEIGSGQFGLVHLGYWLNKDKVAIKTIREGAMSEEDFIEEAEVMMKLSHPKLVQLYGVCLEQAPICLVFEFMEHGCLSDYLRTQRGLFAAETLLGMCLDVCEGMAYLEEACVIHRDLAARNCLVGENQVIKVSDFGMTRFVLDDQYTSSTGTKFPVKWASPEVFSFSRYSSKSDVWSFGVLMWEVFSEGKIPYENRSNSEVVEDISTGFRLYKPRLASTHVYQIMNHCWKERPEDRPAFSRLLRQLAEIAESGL
Sequence of Serine/threonine-protein kinase Chk2 (O96017 whole entry): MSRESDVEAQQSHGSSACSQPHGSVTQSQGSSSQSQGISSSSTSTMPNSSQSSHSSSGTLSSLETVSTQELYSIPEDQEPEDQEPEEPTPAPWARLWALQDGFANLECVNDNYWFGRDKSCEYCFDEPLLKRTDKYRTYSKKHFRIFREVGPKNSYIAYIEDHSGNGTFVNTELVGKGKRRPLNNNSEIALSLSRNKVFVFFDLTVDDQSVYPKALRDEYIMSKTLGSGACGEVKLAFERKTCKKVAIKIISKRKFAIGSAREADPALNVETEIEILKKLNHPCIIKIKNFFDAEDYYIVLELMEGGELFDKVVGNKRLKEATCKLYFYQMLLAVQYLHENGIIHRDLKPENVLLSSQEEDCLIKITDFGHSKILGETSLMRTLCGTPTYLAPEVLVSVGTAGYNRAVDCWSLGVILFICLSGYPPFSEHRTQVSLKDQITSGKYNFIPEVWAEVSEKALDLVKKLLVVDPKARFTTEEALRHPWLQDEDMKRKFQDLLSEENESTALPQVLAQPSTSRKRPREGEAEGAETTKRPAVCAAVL

Ki [2] | Ki [3] | Ki [4] | Ki [5] | Ki (Misshapen-like kinase 1) | Ki (Activin receptor type-1) | Ki [6] | Ki [7] | Ki [8] | Ki [9] | Ki [10] | Ki [11] | Ki [12] | Ki [13] | Ki [14] | Ki [15] | Ki [17] | SMILES | AC50 [1] | IC50 (Caspase-3) | Ki [16]
– | – | – | – | – | – | – | – | – | – | – | – | – | – | – | – | – | CCOC(=O)c1c(NS(=O)(=O)c2ccccc2)n(CCCOC)c2nc3ccccc3nc12 | 12100 nM (active) | 10000 nM (active) | –
– | – | – | – | – | – | – | – | – | – | – | – | – | – | – | – | – | O=C(COC(=O)c1ccc([N+](=O)[O-])s1)NCCc1ccccc1 | > 20000 nM (inactive) | 9700 nM (active) | –
1260 nM (active) | > 1580 nM (inactive) | 398 nM (active) | > 3160 nM (inactive) | 3.98 nM (active) | > 3980 nM (inactive) | > 1580 nM (inactive) | 158 nM (active) | 251 nM (active) | > 5010 nM (inactive) | > 2000 nM (inactive) | > 3980 nM (inactive) | > 1580 nM (inactive) | 63.1 nM (active) | 398 nM (active) | > 2510 nM (inactive) | > 2510 nM (inactive) | OC1CCC(Nc2cc(Cl)nc(-c3c[nH]c4ncccc34)n2)CC1 (configuration not stated) | – | – | 316 nM (active)
